Experimental data: US20120178720A1, “Bisphosphonates as Inhibitors of Acid Sphingomyelinase” (priority 2009, published 2012)
Like-named read-outs stand apart in the source and are kept apart here.

Assays:
[1] = target: T1, aSMase (Rattus norvegicus, UniProt F7ETC0); test: fluorescent aSMase assay with HMU-PC substrate; assay type: biochemical; conditions: for IC50: read-out: IC50 inhibition of aSMase
T1 construct: Crude preparations containing aSMase or nSMase were made from stripped rat brains; from tissue; host or cells: rat brain
T1 sequence (F7ETC0 1-626): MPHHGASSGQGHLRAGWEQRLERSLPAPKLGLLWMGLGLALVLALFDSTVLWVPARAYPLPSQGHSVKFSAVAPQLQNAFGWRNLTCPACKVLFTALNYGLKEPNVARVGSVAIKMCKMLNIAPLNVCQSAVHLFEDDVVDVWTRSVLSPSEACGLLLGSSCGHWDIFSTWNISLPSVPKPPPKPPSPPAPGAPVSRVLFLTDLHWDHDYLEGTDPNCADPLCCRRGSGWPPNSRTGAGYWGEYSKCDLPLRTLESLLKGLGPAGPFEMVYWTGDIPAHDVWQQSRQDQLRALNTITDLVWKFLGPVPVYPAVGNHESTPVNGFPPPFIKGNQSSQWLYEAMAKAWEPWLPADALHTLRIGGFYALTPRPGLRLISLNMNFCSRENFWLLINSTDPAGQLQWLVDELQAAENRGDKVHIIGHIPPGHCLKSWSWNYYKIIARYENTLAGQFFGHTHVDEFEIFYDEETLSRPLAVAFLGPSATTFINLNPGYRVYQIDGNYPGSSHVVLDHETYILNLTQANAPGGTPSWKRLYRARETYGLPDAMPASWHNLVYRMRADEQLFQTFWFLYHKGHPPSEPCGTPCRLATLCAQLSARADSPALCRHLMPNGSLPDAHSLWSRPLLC
Description: Enzyme assays: Crude preparations containing aSMase or nSMase were made from stripped rat brains, as described before. […] The fluorescent aSMase assay was performed in a 384-well-plate using the HMU-PC (6-Hexadecanoylamino-4-methylumbelliferyl-phosphorylcholine) substrate. Reaction mixtures consisted of 13.3 μL HMU-PC, 13.3 μL reaction-buffer (100 mM NaOAc, pH 5.2, 0.2% (w/v) Na—TC, […], 0.2% (v/v) Triton X-100) and 13.3 μL enzyme preparation. Inhibitors were added in various concentrations and the reactions were incubated for 3 hours at 37° C. in a plate reader (FLUOstar OPTIMA, BMG labtech). The fluorescence of HMU (6-Hexadecanoylamino-4-methylumbelliferone) was measured (excitation 380 nm, emission 460 nm) in real time. Assays using the radio-labelled sphingomyelin gave the same results.

[2] = tested on: α-galactosidase A (α-Gal A); conditions: sub-inhibitory intracellular concentrations; cited from earlier work
[3] = tested on: isolated, ventilated and perfused rat lungs; conditions: 10 μM; cited from earlier work
[4] = read-out: Inhibition [%] at 20 μM (aSMase, initial phosphonate collection)
[5] = read-out: Inhibition [%] at 20 μM (aSMase, initial bisphosphonate collection)

Row | IC50 [1] [µM] | Structure (SMILES) | inhibition at 20 µM [1, 5] [%] | other results
1 | – | O=P(O)(O)CN(CP(=O)(O)O)CP(=O)(O)O [Compound 4] | – | inhibition at 20 µM [1, 4]: 0%
2 | – | CN(C)C(P(=O)(O)O)P(=O)(O)O [Compound 14] | 24 | –
3 | – | CCCCNC(P(=O)(O)O)P(=O)(O)O [Compound 9] | 76 | –
4 | – | CCCCP(=O)(O)O [Compound 2] | – | inhibition at 20 µM [1, 4]: 2%
5 | 0.18 ± 0.03 | CCCCCCCCCC(N(C)C)(P(=O)(O)O)P(=O)(O)O [Compound 19b, 1-dimethylaminodecyl-1,1-bisphosphonicacid] | – | –
6 | – | NCCCCCC(O)(P(=O)(O)O)P(=O)(O)O [Compound 6] | 54 | –
7 | – | CC(C)CN(CC(C)C)C(P(=O)(O)O)P(=O)(O)O [Compound 12] | 2 | –
8 | 4.66 ± 1.07 | CCCCCC(N)(P(=O)(O)O)P(=O)(O)O [Compound 7a] | 92 | –
9 | – | O=P(O)(O)C(N(CO)CO)P(=O)(O)O [Compound 13] | 36 | –
10 | – | O=P(O)(O)C(Nc1ccccc1)P(=O)(O)O [Compound 10] | 8 | –
11 | – | OC[C@H]1NC[C@H](O)[C@@H](O)[C@H]1O [DGJ, 1-deoxy-galactonojirimycin] | – | stimulation of α-Gal A in cells [2]: seven- to eight-fold
12 | 0.35 ± 0.06 | CCCCCCCCCC(OP(=O)(O)O)P(=O)(O)O (centres unmarked) [Compound 17, Decyl-1,1-phosphate phosphonate] | – | activity towards aSMase [1]: as active as its bisphosphonate analogue 15b
13 | 9.5 ± 4 | CCCCCC(N(C)C)(P(=O)(O)O)P(=O)(O)O [Compound 19a] | – | –
14 | – | C=CCN(CC=C)C(P(=O)(O)O)P(=O)(O)O [Compound 11] | 32 | –
15 | – | CN(C)CCCN1c2ccccc2CCc2ccccc21 [imipramine] | – | attenuation of PAF-induced oedema formation [3]: attenuated but not completely prevented oedema formation
16 | – | O=P(O)(O)CN(CCN(CP(=O)(O)O)CP(=O)(O)O)CCN(CP(=O)(O)O)CP(=O)(O)O [Compound 5] | – | inhibition at 20 µM [1, 4]: -5%
17 | – | NC(CP(=O)(O)O)P(=O)(O)O (centres unmarked) [Compound 3] | – | inhibition at 20 µM [1, 4]: 47%
18 | – | CC(NCC(=O)O)(P(=O)(O)O)P(=O)(O)O [Compound 8] | 62 | –

Row | Structure (SMILES) | IC50 [1] [µM] | inhibition at 20 µM [1, 5] [%] | other results
19 | CCCCCCCCCC(OP(=O)(OC)OC)P(=O)(OC)OC (centres unmarked) [Compound 16, Decyl-1-dimethylphosphate-1-dimethylphosphohonate] | > 100 | – | activity towards aSMase [1]: totally inactive
20 | CCCCCCCC(N)(P(=O)(O)O)P(=O)(O)O [Compound 7b] | 0.04 ± 0.01 | 93 | aSMase inhibitory potency relative to PtdIns-3,5P2 [1]: about one order of magnitude more potent than PtdIns-3,5P2
21 | O=P(O)(O)C(O)(Cn1ccnc1)P(=O)(O)O [Compound 20, zoledronic acid, reference compound] | 5.08 ± 0.74 | – | –
